Measurements published in patent US9617250B2, “Pyridin-4-yl derivatives” (ACTELION PHARMACEUTICALS LTD., priority 2013, dated 2017).

Tests used:
[1] = target: human S1P3 receptor (Homo sapiens (Human), UniProt Q99500); assay: GTPγS assay to determine EC50 values, S1P3; format: biochemical; conditions: comparison in words
[2] = system: circulating lymphocytes; assay: Assessment of in vivo efficacy: circulating lymphocytes after oral administration; design: species or system rat; conditions: 6 h after oral administration of 10 mg/kg, normotensive male Wistar rats, compared to vehicle group
Description: The efficacy of the compounds of Formula (I) is assessed by measuring the circulating lymphocytes after oral administration of 3 to 30 mg/kg of a compound of Formula (I) to normotensive male Wistar rats. The animals are housed in climate-controlled conditions with a 12 h-light/dark cycle, and have free access to normal rat chow and drinking water. Blood is collected before and 3, 6 and 24 h after drug administration. Full blood is subjected to hematology using Advia Hematology system (Bayer Diagnostics, Zürich, Switzerland).
All data are presented as mean±SEM. Statistical analyses are performed by analysis of variance (ANOVA) using Statistica (StatSoft) and the Student-Newman-Keuls procedure for multiple comparisons. The null hypothesis is rejected when p<0.05.
Lymphocyte counts 6 h after oral administration have been measured for 2 out of 8 exemplified compounds and are in the range of −71% to −73% with an average of −72%.

Chain of human S1P3 receptor (Q99500 whole entry): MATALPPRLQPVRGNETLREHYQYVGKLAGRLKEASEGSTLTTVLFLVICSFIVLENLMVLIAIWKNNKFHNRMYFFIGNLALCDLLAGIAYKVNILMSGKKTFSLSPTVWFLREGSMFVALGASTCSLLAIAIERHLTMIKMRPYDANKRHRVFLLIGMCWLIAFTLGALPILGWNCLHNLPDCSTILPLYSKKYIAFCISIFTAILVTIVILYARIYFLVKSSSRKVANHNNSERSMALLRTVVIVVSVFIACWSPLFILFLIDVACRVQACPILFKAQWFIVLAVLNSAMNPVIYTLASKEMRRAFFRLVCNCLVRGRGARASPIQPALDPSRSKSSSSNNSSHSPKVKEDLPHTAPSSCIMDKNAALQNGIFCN

potency on S1P3 receptor compared to closest analog in D1 [1]	SMILES	Lymphocyte counts [2] [%]
clearly less potent	CCCc1cc(-c2nc(-c3cc(C)c(OC[C@@H](O)CNC(=O)CO)c(CC)c3)no2)ccn1 [Example 2, (S)—N-(3-(2-ethyl-4-(5-(2-propylpyridin-4-yl)-1,2,4-oxadiazol-3-yl)-6-methyl-phenoxy)-2-hydroxypropyl)-2-hydroxyacetamide]	–
significantly less potent	CCc1cc(-c2noc(-c3ccnc(C(CC)CC)c3)n2)cc(C)c1OC[C@@H](O)CNC(=O)CO [Example 7, (S)—N-(3-(2-ethyl-4-(5-(2-(pentan-3-yl)-pyridin-4-yl)-1,2,4-oxadiazol-3-yl)-6-methylphenoxy)-2-hydroxypropyl)-2-hydroxyacetamide]	−71
significantly less potent	CCc1cc(-c2noc(-c3ccnc(C4CCCC4)c3)n2)cc(C)c1OC[C@@H](O)CNC(=O)CO [Example 8, (S)—N-(3-(2-ethyl-4-(5-(2-cyclopentylpyridin-4-yl)-1,2,4-oxadiazol-3-yl)-6-methylphenoxy)-2-hydroxypropyl)-2-hydroxyacetamide]	−73
significantly less potent	CCc1cc(-c2noc(-c3ccnc(CC(C)C)c3)n2)cc(C)c1OC[C@@H](O)CNC(=O)CO [Example 5, (S)—N-(3-(2-Ethyl-4-(5-(2-isobutylpyridin-4-yl)-1,2,4-oxadiazol-3-yl)-6-methylphenoxy)-2-hydroxypropyl)-2-hydroxyacetamide]	–
